# Measurements taken from publication PMC2642990, “The Glycogen-Binding Domain on the AMPK β Subunit Allows the Kinase to Act as a Glycogen Sensor” (Cell Metabolism, 2009).
# Molecular target: T1, recombinant AMPK complex (myc-α1:β1:γ1) (Rattus norvegicus, UniProt P80386)
# T1 construct: recombinant AMPK complex (myc-α1:β1:γ1) containing full-length (1–270) or truncated β1 subunit lacking the GBD (172–270); made in house; host or cells: human CCL13 cells, co-transfected; isolated by anti-myc immunoprecipitation
# T1 sequence (P80386 whole entry, the tested form may be a part): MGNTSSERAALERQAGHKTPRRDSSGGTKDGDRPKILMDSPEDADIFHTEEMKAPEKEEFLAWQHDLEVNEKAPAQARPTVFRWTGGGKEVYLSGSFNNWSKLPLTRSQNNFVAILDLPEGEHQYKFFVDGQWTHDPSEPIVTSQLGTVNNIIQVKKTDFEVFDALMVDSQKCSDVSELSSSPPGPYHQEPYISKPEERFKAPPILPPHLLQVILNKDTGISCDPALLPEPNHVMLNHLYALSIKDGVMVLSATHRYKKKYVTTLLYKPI
# T1 sequence (P54645 13-559 partner limits assumed): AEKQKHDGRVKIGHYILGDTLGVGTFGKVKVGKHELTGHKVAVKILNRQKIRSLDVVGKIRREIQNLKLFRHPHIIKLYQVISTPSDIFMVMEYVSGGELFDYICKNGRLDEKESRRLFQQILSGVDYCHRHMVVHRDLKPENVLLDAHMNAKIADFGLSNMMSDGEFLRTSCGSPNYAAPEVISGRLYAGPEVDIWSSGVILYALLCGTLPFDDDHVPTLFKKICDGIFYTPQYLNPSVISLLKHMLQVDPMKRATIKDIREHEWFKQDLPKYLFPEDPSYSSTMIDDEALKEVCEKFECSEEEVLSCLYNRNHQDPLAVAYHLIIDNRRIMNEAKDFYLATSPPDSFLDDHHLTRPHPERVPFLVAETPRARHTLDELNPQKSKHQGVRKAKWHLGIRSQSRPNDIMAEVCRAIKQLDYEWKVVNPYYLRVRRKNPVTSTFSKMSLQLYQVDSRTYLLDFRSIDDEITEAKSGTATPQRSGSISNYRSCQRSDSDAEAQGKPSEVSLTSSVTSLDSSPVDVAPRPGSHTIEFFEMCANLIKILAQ
# T1 sequence (P80385 whole entry partner, the tested form may be a part): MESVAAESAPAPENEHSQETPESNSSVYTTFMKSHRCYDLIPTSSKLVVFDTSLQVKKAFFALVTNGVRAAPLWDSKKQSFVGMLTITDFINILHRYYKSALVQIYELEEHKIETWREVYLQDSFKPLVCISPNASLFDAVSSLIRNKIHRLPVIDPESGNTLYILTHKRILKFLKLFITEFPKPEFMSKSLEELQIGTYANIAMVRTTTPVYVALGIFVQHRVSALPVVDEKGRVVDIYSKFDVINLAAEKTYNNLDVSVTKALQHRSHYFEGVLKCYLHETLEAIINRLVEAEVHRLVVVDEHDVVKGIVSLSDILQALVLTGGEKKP
# Assay: recombinant wild-type AMPK expressed in CCL13 cells, assayed in anti-myc immunoprecipitates
# Format: biochemical
# Conditions: 20 mM; Figure 5D
# Excerpt: Figure 2 Allosteric Inhibition of AMPK by Different Glycogen Preparations (A) Concentration dependence of inhibition of native rat liver AMPK by preparations of bovine and rat liver glycogen; glycogen concentrations expressed as glucose produced after total hydrolysis. Data were fitted to an IC50 equation (see Supplemental Experimental Procedures), and curves were generated using the estimated best-fit parameters. (B) Concentration dependence of inhibition of native rat liver AMPK by bovine liver glycogen in the presence and absence of 200 μM AMP; curves were generated as in (A). (C) Inhibition by bovine liver glycogen of recombinant AMPK complex (myc-α1:β1:γ1) containing full-length (1–270) or truncated β1 subunit lacking the GBD (172–270). Complexes were expressed in CCL13 cells and purified by immunoprecipitation prior to assay with or without glycogen (200 mM glucose equivalents). Data are means ± SEM (n = 3). ^∗Activity different from control without glycogen by t test (p < 0.05). […] Results are expressed as percentages of the activity in controls without glycogen, and data are mean ± SEM (n = 3). […]
smiles,measurement,value
OC[C@H]1O[C@H](OC[C@H]2OC(O)[C@H](O)[C@@H](O)[C@@H]2O)[C@H](O)[C@@H](O)[C@@H]1O (stereo partly shown) [isomaltose],inhibition of wild-type recombinant α1β1γ1,inhibited
